# Results as given in paper PMC4012441, “Nature’s Lab for Derivatization: New and Revised Structures of a Variety of Streptophenazines Produced by a Sponge-Derived Streptomyces Strain” (Marine Drugs, 2014).
# Target: T1, PDE 4B (Homo sapiens, UniProt Q07343)
# T1 construct: gene PDE4B
# Assay: PDE4B enzyme inhibition assay (according to Schulz et al.)
# Type: biochemical
# T1 sequence (Q07343 whole entry): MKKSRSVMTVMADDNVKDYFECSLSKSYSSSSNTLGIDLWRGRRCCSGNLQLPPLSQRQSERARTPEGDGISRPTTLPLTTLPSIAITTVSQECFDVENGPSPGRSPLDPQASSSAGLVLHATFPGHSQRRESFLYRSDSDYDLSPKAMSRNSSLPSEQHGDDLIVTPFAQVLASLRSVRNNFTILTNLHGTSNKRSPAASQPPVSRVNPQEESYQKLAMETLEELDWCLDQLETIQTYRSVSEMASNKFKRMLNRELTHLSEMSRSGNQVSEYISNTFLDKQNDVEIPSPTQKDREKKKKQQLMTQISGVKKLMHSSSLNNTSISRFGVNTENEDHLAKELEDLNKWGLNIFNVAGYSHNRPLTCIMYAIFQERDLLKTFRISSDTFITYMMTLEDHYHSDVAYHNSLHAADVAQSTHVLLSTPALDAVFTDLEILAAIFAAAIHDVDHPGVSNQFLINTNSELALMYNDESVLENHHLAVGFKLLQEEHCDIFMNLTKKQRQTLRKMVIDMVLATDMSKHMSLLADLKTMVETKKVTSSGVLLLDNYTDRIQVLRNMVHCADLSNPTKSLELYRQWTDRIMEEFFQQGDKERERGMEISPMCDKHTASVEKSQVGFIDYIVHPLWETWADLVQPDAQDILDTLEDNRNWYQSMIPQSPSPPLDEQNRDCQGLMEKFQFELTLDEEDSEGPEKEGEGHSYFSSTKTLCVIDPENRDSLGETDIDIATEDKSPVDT
row,IC50 [µM],Structure (SMILES)
1,12.2,"CCC(C)CCC[C@@H](C(=O)OC)[C@H](O)c1cccc2nc3c(C(=O)O)cccc3nc12 (stereo partly drawn) [compound 3, Streptophenazine K]"
2,12,"COC(=O)c1cccc2nc3c(C(O)C(CCCC(C)C(C)O)C(=O)OC)cccc3nc12 (stereo not drawn) [compound 2, Streptophenazine J]"
3,5.2,"CCC(C)CCC[C@@H](C(=O)OC)[C@H](O)c1cccc2nc3c(C(=O)OC)cccc3nc12 (stereo partly drawn) [compound 9, Streptophenazine G]"
